Test results from PubChem BioAssay AID192 (DTP/NCI, 2004).
Several values for one entry are separate records, joined by “and”; a condition that tells them apart may be missing. Equal values may be shown once. Inconclusive results and toxic doses are left out. Rule for the calls: active = survival T/C of 150% or more; inactive = T/C below 125% in these data.

Tested on: BDF1 mice, B16 melanoma ip, median survival T/C
Assay: NCI In Vivo Anticancer Drug Screen. Data for tumor model B16 Melanoma (intraperitoneal) in B6D2F1 (BDF1) mice
Conditions: endpoint: median survival time, higher = longer survival
Summary of the method: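 Survival or tumor size is measured after treatment of tumor-bearing mice and normalised to the vehicle-treated control group.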

Measured: T/C

COc1cccc2c1C(=O)c1c(O)c3c(c(O)c1C2=O)CC(O)(C(=O)CO)CC3OC1CC(N)C(O)C(C)O1 (configuration not stated)
inactive: dose: 15.0 mg/kg/injection, schedule: Q01DX001 (ip), vehicle: water 108 % of control | dose: 30.0 mg/kg/injection, schedule: Q01DX001 (ip), vehicle: water 116 % of control | dose: 60.0 mg/kg/injection, schedule: Q01DX001 (ip), vehicle: water 114 % of control
active: dose: 1.12 mg/kg/injection, schedule: Q01DX001 (ip), vehicle: water 178 % of control | dose: 2.25 mg/kg/injection, schedule: Q01DX001 (ip), vehicle: water 156 % of control and 212 % of control and 228 % of control | dose: 2.9 mg/kg/injection, schedule: Q01DX009 (ip), vehicle: saline 195 % of control | dose: 4.2 mg/kg/injection, schedule: Q01DX001 (ip), vehicle: water 178 % of control | dose: 4.32 mg/kg/injection, schedule: Q01DX004 (ip), vehicle: other 152 % of control | dose: 4.5 mg/kg/injection, schedule: Q01DX001 (ip), vehicle: water 161 % of control and 194 % of control and 273 % of control | dose: 6.9 mg/kg/injection, schedule: Q01DX001 (ip), vehicle: water 183 % of control | dose: 7.2 mg/kg/injection, schedule: Q01DX004 (ip), vehicle: other 152 % of control | dose: 9.0 mg/kg/injection, schedule: Q01DX001 (ip), vehicle: water 203 % of control and 273 % of control and 277 % of control | dose: 9.4 mg/kg/injection, schedule: Q01DX001 (ip), vehicle: water 189 % of control | dose: 10.0 mg/kg/injection, schedule: Q01DX009 (ip), vehicle: saline 222 % of control and 298 % of control | dose: 11.4 mg/kg/injection, schedule: Q04DX003 (ip), vehicle: saline 182 % of control | dose: 11.7 mg/kg/injection, schedule: Q01DX009 (ip), vehicle: saline 267 % of control | dose: 12.0 mg/kg/injection, schedule: Q01DX004 (ip), vehicle: other 159 % of control | dose: 18.0 mg/kg/injection, schedule: Q01DX001 (ip), vehicle: water 203 % of control and 250 % of control and 273 % of control | dose: 18.75 mg/kg/injection, schedule: Q01DX001 (ip), vehicle: water 235 % of control | dose: 18.8 mg/kg/injection, schedule: Q01DX001 (ip), vehicle: water 200 % of control | dose: 19.2 mg/kg/injection, schedule: Q01DX001 (ip), vehicle: water 209 % of control | dose: 20.0 mg/kg/injection, schedule: Q01DX009 (ip), vehicle: saline 289 % of control and 314 % of control | dose: 22.8 mg/kg/injection, schedule: Q04DX003 (ip), vehicle: saline 236 % of control | dose: 23.4 mg/kg/injection, schedule: Q01DX009 (ip), vehicle: saline 165 % of control and 200 % of control | dose: 32.0 mg/kg/injection, schedule: Q01DX001 (ip), vehicle: other 164 % of control | dose: 36.0 mg/kg/injection, schedule: Q01DX001 (ip), vehicle: water 203 % of control | dose: 37.5 mg/kg/injection, schedule: Q01DX001 (ip), vehicle: water 226 % of control and 280 % of control | dose: 40.0 mg/kg/injection, schedule: Q01DX009 (ip), vehicle: saline 287 % of control | dose: 45.6 mg/kg/injection, schedule: Q04DX003 (ip), vehicle: saline 150 % of control and 276 % of control | dose: 46.8 mg/kg/injection, schedule: Q01DX009 (ip), vehicle: saline 172 % of control | dose: 72.0 mg/kg/injection, schedule: Q01DX001 (ip), vehicle: water 277 % of control | dose: 75.0 mg/kg/injection, schedule: Q01DX001 (ip), vehicle: water 314 % of control and 334 % of control | dose: 91.2 mg/kg/injection, schedule: Q04DX003 (ip), vehicle: saline 157 % of control and 276 % of control | dose: 150.0 mg/kg/injection, schedule: Q01DX001 (ip), vehicle: water 185 % of control and 315 % of control

CCCCNC(C)(C)C1(c2ccc(Cl)cc2)SSC(c2ccc(Cl)cc2)(C(C)(C)NCCCC)SS1 (configuration not stated)
inactive: dose: 10.0 mg/kg/injection, schedule: Q01DX009 (ip), vehicle: Klucel (hydroxypropylcellulose) (HPC) 94 % of control | dose: 20.0 mg/kg/injection, schedule: Q01DX009 (ip), vehicle: Klucel (hydroxypropylcellulose) (HPC) 89 % of control | dose: 40.0 mg/kg/injection, schedule: Q01DX009 (ip), vehicle: Klucel (hydroxypropylcellulose) (HPC) 86 % of control
